Test results taken from patent publication US20250352524A1, “PREVENTION OF METASTATIC OUTGROWTH USING TEAD INHIBITORS” (Georgetown University, priority 2024, published 2025).

Key:
[1] = tested on: bone marrow-derived macrophages; test: Cytokine array of conditioned media, bone marrow-derived macrophages; format: cell-based, mouse; settings: 1 μM VT107 for 24 hours
From the text: Due to the shifts in immune signaling observed in the lung tissue upon TEAD inhibition (FIG. 9), immune cell populations were first analyzed by flow cytometry in the lungs and spleens of tumor naïve mice. Consistent with the Cibersort analysis of RNA-seq data, there was a decrease in the monocytes population and an increase in the tissue-resident alveolar macrophages (AM) (FIG. 10, Panel A). […] Next, it was sought to determine the specific effects of iTEAD treatment on lung resident versus bone-marrow derived macrophages, as the dynamics of these cell populations are crucial for the establishment of the metastatic niche (Ries et al., 2014; Qian et al., 2011). Macrophages were retrieved from the lungs by isolating F4/80+ cells, a specific marker for murine macrophages, by FACS (fluorescence-activated cell sorting) as well as bone marrow-derived macrophages from the femurs of naïve C57BL/6 mice that were then differentiated in vitro using macrophage colony stimulating factor (M-CSF). Macrophages were treated with 1 μM of VT107 for 24 hours before the conditioned media was collected and analyzed on a cytokine array. […] There was no change in the level of the other cytokines detected (FIG. 10, Panel B). […]

[2] = tested on: lung resident macrophages; test: Cytokine array of conditioned media, isolated lung macrophages; format: cell-based, C57BL/6 mice
From the text: Due to the shifts in immune signaling observed in the lung tissue upon TEAD inhibition (FIG. 9), immune cell populations were first analyzed by flow cytometry in the lungs and spleens of tumor naïve mice. Consistent with the Cibersort analysis of RNA-seq data, there was a decrease in the monocytes population and an increase in the tissue-resident alveolar macrophages (AM) (FIG. 10, Panel A). […] Next, it was sought to determine the specific effects of iTEAD treatment on lung resident versus bone-marrow derived macrophages, as the dynamics of these cell populations are crucial for the establishment of the metastatic niche (Ries et al., 2014; Qian et al., 2011). Macrophages were retrieved from the lungs by isolating F4/80+ cells, a specific marker for murine macrophages, by FACS (fluorescence-activated cell sorting) as well as bone marrow-derived macrophages from the femurs of naïve C57BL/6 mice that were then differentiated in vitro using macrophage colony stimulating factor (M-CSF). Macrophages were treated with 1 μM of VT107 for 24 hours before the conditioned media was collected and analyzed on a cytokine array. […] There was no change in the level of the other cytokines detected (FIG. 10, Panel B).
Cells were grown in their recommended cell culture media and treated with […] VT107 for 24 or 72 hours. Conditioned media was collected and passed through a 0.2 micron PES filter then analyzed on a RayBio® Mouse Cytokine Array (#AAM-TCR-1) according to the manufacture's protocol. The array includes two spots for each cytokine. The luminescence signal was normalized to the positive control on each membrane, then to the vehicle treatment signal of each cytokine.

peritoneal macrophages = test: Gene expression and pathway analysis of peritoneal macrophages treated in vitro; format: cell-based, mouse
From the text: To investigate whether the effect of iTEAD treatment on macrophages can enhance their crosstalk with T-cells in the lung microenvironment, peritoneal macrophages+/−iTEAD were first isolated and characterized as a model of resident macrophages for ex vivo experiments (FIG. 14, Panel A). It was observed that treatment with VT107 decreased gene expression of M2-like and fibrosis regulators, Aldh1a1 and Cc117 (Chen et al., 2020), as well as TEAD4 and its downstream target gene Ankrd1. […] The iTEAD pretreated peritoneal macrophages and untreated T-cells isolated from the spleen of tumor naïve mice (FIG. 14, Panel A) were then mixed for 5 hours before collecting the conditioned media for analysis. […] Next, these immune cell mixes were added to 4T1 spheres that were embedded into matrix. […] This effect was reversed by an IL12 neutralizing antibody. No change in cleaved caspase-3 in 4T1 cells in the presence of VT107-treated T-cells or macrophages alone, was detected at 24 hours (FIG. 14, Panels C and D). 4T1 cells were then plated and allowed to attach on electrode-coated arrays to monitor cancer cell viability before the addition of macrophages+/−iTEAD and T-cells. […] This reversal of T-cell cytotoxicity by IL12 antibodies was not observed in VT107-treated T-cells in the absence of macrophages (FIG. 15, Panel E) indicating a critical role for IL12 in the crosstalk between macrophages and T-cells.
The total RNA from tissue or cell lines was extracted using RNeasy Mini Kit (Qiagen, #74104) according to the manufacturer's instructions. Total RNA integrity was assessed with the Agilent 2100 Bioanalyzer. The library preparation and next-generation sequencing (NGS) were performed at Novogene Corporation Inc. (Sacramento, CA, USA). At least triplicate samples per experimental condition were analyzed, raw sequence reads (150 bp paired end, […] average reads/sample) were aligned to the human or mouse transcriptome using STAR, and aligned reads translated to expression counts via featurecounts, followed by a standard edgeR (RRID:SCR_012802) pipeline to identify DEGs under specific conditions. Ingenuity pathway analysis (IPA, RRID:SCR_008653) was undertaken using a list of all differentially expressed genes with a cutoff of p-value less than 0.05 to identify signaling pathways and upstream regulators.

E0771 cells = test: Real Time Cell Analysis, proliferation of E0771 cells; format: cell-based, mouse; settings: increasing doses of VT107, cell index
Procedure: E0771 cells were injected into the mammary fat pad of C57BL/6 mice (Johnstone et al., 2015). When primary tumors became palpable at 3 weeks, mice were treated daily with VT107 or vehicle control. Mice weights were monitored throughout treatment (FIG. 8, Panel B). Primary tumors were surgically resected at week 4 and mice were euthanized at week 6 to inspect lungs for metastases (FIG. 9, Panel A)
Cell analysis was done using E-plates from xCELLigence, (Agilent, #5469830001) according to the manufacturer's protocol. For cell cytotoxicity, cancer cells (10,000-25,000 cells per well) were seeded and allowed to attach for 1-2 hours prior to the addition of immune cells and/or drug treatments. For cell proliferation, cancer cells were seeded at 5,000-10,000 cells per well with incremental doses of drug treatments or DMSO as a vehicle control. Cell index was measured by changes in electric impedance at 15 min intervals. TEAD inhibitors were obtained from Vivace therapeutics.

[3] = 1 μM VT107 for 24 hours, pathway analysis

Substance: VT107
- secreted IL4 levels [1]: reduced
- secreted IL12 [1]: no effect
- level of the other cytokines detected ([2]; 1 μM VT107 24 hours, lung and bone marrow-derived macrophages): no change
- secreted IL4 ([2]; 1 μM VT107 for 24 hours): significantly higher level
- secreted IL12 ([2]; 1 μM VT107 for 24 hours): significantly higher level
- cell cycle related pathways (peritoneal macrophages; [3]): upregulated
- disease-related chronic inflammation pathways (peritoneal macrophages; [3]): downregulation
- Pvalb gene expression (peritoneal macrophages; 1 μM VT107 for 72 hours): top upregulated gene
- gene expression of Aldh1a1, Cc117, TEAD4 and Ankrd1 (peritoneal macrophages; 1 μM VT107 for 72 hours): decreased
- proliferation of E0771 in vitro (E0771 cells): did not impact
